Data on 1 molecule can be found in patent US12122760B2, “Compound, composition, and use thereof in preparation of drug” (CHANGSHA ZEDA MEDICAL TECH. CO., LTD, priority 2019, dated 2024).

The IC50 is the concentration at which inhibition is half-maximal.

Holding throughout (type): cell-based
Assay [1] relates to Histone deacetylase (HDAC). As to the kind of experiment: HDAC inhibitory activity: Kac-H3 Western Blot in VCaP cells. To be noted: 10 uM drug, 24 h, FIG. 5. The method, then: The VCap cells are cultured in the 6-well plate. After treating the VCap cells with the drugs for 24 hours, acetylation levels of the tubulin in the cytoplasm and the H3 protein in the nucleus are examined by the western blot. An experiment process is as follows:
The VCaP cells are spread in the 6-well plate. 5×10^5 cells are inoculated per well, and incubated overnight to make the cells stick to a wall. Then 10 uM of the drug is added to each well. The cells are collected after being incubated for 24 h. The EpiQuik Total Histone Extraction kit (Epigentek, USA) is used to extract the histones, and the Western Blot method is used to detect expression levels of Kac-H3 (localized cell nucleus) in the cells after adding the different drugs.
(In general: A western blot detects proteins with antibodies after separation by electrophoresis.)

In the next assay the test system is VCaP cells. As to the kind of experiment: Inhibiting effect on VCaP cell proliferation (MTS). To be noted: 4 days treatment, FIG. 6. The method, then: Androgen-sensitive prostate cancer cell (VCaP cells) are cultured in a 96-well plate. The VCaP cells are able to proliferate in a medium supplemented with 10 nM of the DHT. After treating the cells with the drugs for 4 days, we measure the effects of the drugs on the proliferation of the prostate cancer cells.
The VCaP cells are cultured by using 5% CSS and 1640 medium without phenol red, and inoculated in the 96-well plate. 1×10^4 cells are added to each well, and incubated overnight to make the cells stick to a wall. Different concentrations of the drugs are added on the second day. After treating the cells with the drugs for 4 days, cell viability is measured by the MTS kit (Promega, USA). To each well, 10% of an MTS reagent is added, and incubation continued for 2 hours. The absorbance value at […] is then measured by the multi-functional microplate reader. The Graphpad Prism software is used to draw a curve by using the drug concentration as an abscissa and using the absorbance value of the drug treatment/the absorbance value of the blank treatment cell as an ordinate.

The test system of assay [2] is AR protein in MDA-MB-453 TNBC cells. As to the kind of experiment: AR protein Western blot in MDA-MB-453 cells. To be noted: 48 h, FIG. 8. As for the experimental part: MDA-MB-453 cells treated with Zeta55 or Tubastatin A at indicated concentrations for 48 h were harvested and lysed in ice-cold RIPA buffer with protease inhibitor Cocktail. After quantification by BCA, protein (30-50 μg) were separated with 10% SDS-PAGE gels and transferred onto polyvinylidene difluoride (PVDF) membranes. The following antibodies were used in this study: AR(CST,1:1000),α-tubulin(CST,1:1000), Ac-α-tubulin(CST,1:1000). Secondary antibodies: HRP-conjugated anti-mouse IgG and anti-rabbit IgG (Proteintech, 1:5000).

Another assay has as its target T1, androgen receptor (AR) (Homo sapiens, UniProt P10275).
T1 construct: expressed in transfected cells; host or cells: 293T cells
T1 sequence (P10275 1-920): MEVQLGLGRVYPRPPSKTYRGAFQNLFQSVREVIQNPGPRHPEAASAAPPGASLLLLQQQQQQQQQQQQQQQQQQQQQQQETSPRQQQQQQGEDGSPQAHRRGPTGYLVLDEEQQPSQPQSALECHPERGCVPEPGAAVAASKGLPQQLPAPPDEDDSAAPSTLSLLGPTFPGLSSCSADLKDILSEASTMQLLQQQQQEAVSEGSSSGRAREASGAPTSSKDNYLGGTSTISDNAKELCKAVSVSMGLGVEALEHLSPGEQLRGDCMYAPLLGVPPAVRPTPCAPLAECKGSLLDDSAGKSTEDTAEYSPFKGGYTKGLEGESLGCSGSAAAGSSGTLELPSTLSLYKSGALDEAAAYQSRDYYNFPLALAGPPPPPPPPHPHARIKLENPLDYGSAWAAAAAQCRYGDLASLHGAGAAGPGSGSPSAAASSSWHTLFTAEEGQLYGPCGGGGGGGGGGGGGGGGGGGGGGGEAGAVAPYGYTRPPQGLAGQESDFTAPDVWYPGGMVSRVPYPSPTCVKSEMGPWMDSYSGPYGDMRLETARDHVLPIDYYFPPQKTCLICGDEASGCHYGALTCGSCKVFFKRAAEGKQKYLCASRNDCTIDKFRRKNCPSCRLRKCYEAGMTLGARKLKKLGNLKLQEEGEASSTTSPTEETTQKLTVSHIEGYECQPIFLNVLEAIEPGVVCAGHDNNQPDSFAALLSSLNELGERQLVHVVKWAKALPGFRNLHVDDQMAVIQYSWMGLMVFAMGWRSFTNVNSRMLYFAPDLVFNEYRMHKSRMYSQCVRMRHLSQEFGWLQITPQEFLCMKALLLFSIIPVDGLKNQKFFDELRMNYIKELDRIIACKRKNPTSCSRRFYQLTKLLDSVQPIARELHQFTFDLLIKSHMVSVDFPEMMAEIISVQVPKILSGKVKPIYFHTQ
As to the kind of experiment: Luciferase reporter gene experiment (MMTV-LUC + pSV-AR in 293T cells). To be noted: 10 nM DHT, FIG. 2. The method, then: 293T cells are cultured in a 96-well plate. AR plasmids and luciferase genes with AR target promoters are co-transfected in the 293T cells. AR activates the target promoters to express luciferase, and the expression level of the luciferase is directly proportional to AR activation. Adding DHT to the cells can activate AR and express the luciferase, thus enhancing fluorescence signal detection. By detecting the fluorescent signal, it can be examined whether an added drug has AR antagonist activity.
The luciferase reporter gene plasmid MMTV-LUC containing the androgen receptor (AR) target promoters and the plasmid pSV-AR expressing the androgen receptor (AR) are constructed. The 293T cells are inoculated in a 96-well plate, wherein each well containing 1×10^4 cells. The cells are incubated overnight to stick to the wall. On the second day, Lipofectamine® 3000 (Life technologies, USA) is used to transfect the plasmid into the cells. Each well is added with 180 ng of MMTV-LUC plasmid and 20 ng of pSV-AR plasmid. On the third day, each well is added with 10 nM of the DHT and the drugs of different concentrations of 1 nM, 10 nM, 100 nM, 1 uM, 10 uM, 25 uM, 50 uM respectively. The control is 10 nM of the DHT. On the fifth day, a luciferase reporter gene detection kit (Biyuntian company, China) is used to process the cells. 100 uL of cell lysate is added to the 96-well plate, and lyse for 20 min. Then centrifuging is performed at 4 degrees and 10000 g for 3 min. 50 uL of supernatant is taken and 100 uL of a luciferase detection reagent is added. After mixing, chemiluminescence is immediately detected on the multi-functional microplate reader. Graphpad Prism software is used to draw a curve by using the drug concentration as an abscissa and using drug fluorescence value/positive control fluorescence value as an ordinate. Herein MDV3100 is the positive control.
On the technique in general: In a reporter assay the amount or activity of a reporter protein is the signal.

Another assay concerns MDA-MB-453 TNBC cells. As to the kind of experiment: Cell proliferation of MDA-MB-453 (CCK8 cell viability). To be noted: 72 h. The method, then: 8000 MDA-MB-453 cells were plated in each well of a 96-well plate and incubated for 48 hours. Then cells were treated with increasing concentrations of Zeta55, MDV3100 or SAHA for 72 h, At last, cell viability was measured using a CCK8 Assay kit.

For `N#Cc1ccc(N2C(=O)C3(CCC3)N(c3ccc(C(=O)NO)c(F)c3)C2=S)cc1C(F)(F)F` [Zeta 55, 4-(7-(4-cyano-3-(trifluoromethyl)phenyl)-8-oxo-6-thio-5,7-diazaspiro[3.4]octane-5-yl)-2-fluoro-N-hydroxybenzamide], the “H3 acetylation in the nucleus (HDAC inhibitory activity)” value in assay [1] is “superior”. Besides, the “inhibitory effect on the VCap cell proliferation, from high to low” value in the assay on VCaP cells is given as “Zeta55>Zeta32>Zeta33>Zeta34>Zeta57”. Also, the “cell proliferation inhibitory effect compared with positive control drug MDV3100” value in the assay with VCaP cells (VCaP cells) was “better than that of the positive control drug MDV3100”. In addition, the “reduction of AR protein” value in assay [2] is recorded as “significant dose-dependent reduction of AR protein”. Also, on androgen receptor (AR), the “antagonist effect on the AR, antagonistic ability from high to low” value was “Zeta32>Zeta55>Zeta34>Zeta57>Zeta33”. Besides, in the assay on MDA-MB-453 TNBC cells (CCK8, FIG. 9), the “potency relative to MDV3100” value is recorded as “about 1.5 times”. In the assay on MDA-MB-453 TNBC cells (Homo sapiens, CCK8, FIG. 9, read-out: IC50 of dose-dependent killing of the cells), the concentration for half-maximal inhibition (IC50) is 11.1 µM.
